Test results taken from patent US6355647B1, “3-substituted 3,4,5,7-tetrahedropyrrolo[3′,4′:4,5]thieno-[2,3-d]pyrimidine derivatives, their preparation and use” (Abbott Laboratories, priority 1997, dated 2002).

Columns and labels:
[1] = tested on: serotonin release in the cortex; settings: after systemic administration; cited from earlier work
[2] = tested on: serotonin release in the dorsal raphe nucleus; settings: rat; combined with paroxetine; cited from earlier work

**Q.** With COc1ccc(NC(=O)c2ccc(-c3ccc(-c4noc(C)n4)cc3C)cc2)cc1N1CCN(C)CC1 [GR 127 935] as the molecule, how does the “serotonin release in the cortex” value [1] read?
**A.** reduces serotonin release

**Q.** And the “effect of paroxetine on serotonin release in the dorsal raphe nucleus” value [2]?
**A.** potentiated

**Q.** Which melting point does the source give for CCOC(=O)N1Cc2sc3ncn(CCN4CCN(c5ncccn5)CC4)c(=O)c3c2C1 here?
**A.** 166 °C

**Q.** With CCOC(=O)N1Cc2sc3ncn(CCCN4CCN(c5ccccc5C#N)CC4)c(=O)c3c2C1 as the molecule, how does the melting point read?
**A.** 190 °C

**Q.** Which melting point does the source give for CCOC(=O)N1Cc2sc3ncn(CCN4CCN(c5cccc6c5CCC6)CC4)c(=O)c3c2C1 here?
**A.** 149 °C

**Q.** Which melting point does the source give for CCOC(=O)N1Cc2sc3ncn(CCN4CCN(c5cccc6ccccc56)CC4)c(=O)c3c2C1 here?
**A.** 190 to 192 °C

**Q.** With CCOC(=O)N1Cc2sc3ncn(CCN4CCN(c5ccccc5C)CC4)c(=O)c3c2C1 as the molecule, how does the melting point read?
**A.** 152 °C

**Q.** With CCOC(=O)N1Cc2sc3ncn(CCN4CCN(c5ccccc5Cl)CC4)c(=O)c3c2C1 as the molecule, how does the melting point read?
**A.** 172 °C
